By EC50 is commonly meant the concentration at which the effect is half-maximal. A word on the CC50: it is the concentration giving 50% cytotoxicity.

Active and inactive are the calls of the source. Bounds are passed on as bounds.

Consider 11 molecules from ChEMBL document CHEMBL1201862, “PubChem BioAssay data set” (2004).

Assay [1] has as its target T1, Bcl-2-related protein A1 (Mus musculus, UniProt Q07440).
T1 sequence (Q07440 whole entry): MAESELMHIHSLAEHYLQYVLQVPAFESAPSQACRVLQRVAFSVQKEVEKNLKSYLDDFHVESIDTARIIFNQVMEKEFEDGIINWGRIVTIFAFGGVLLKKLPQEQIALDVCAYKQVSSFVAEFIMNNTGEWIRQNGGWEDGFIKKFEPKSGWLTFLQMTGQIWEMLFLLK
The experiment in a line: small-molecule antagonists of Bfl-1/BH3 interaction – biochemical, TR-FRET, mouse Bfl-1, confirmation (AID 621).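 Also: TR-FRET binding of GST-Bfl-1 to FITC-labelled Bid peptide via terbium antibody.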 On the technique in general: In TR-FRET formats the signal depends on donor and acceptor labels being close together.

Assay [2] deals with T1, Bcl-2-related protein A1. The experiment in a line: displacement of Bid BH3 peptide from Bfl-1 – biochemical, fluorescence polarization, FITC-Bid, mouse, primary screen (AID 432). A general note: Fluorescence polarisation rises when a labelled molecule tumbles more slowly, as on binding a larger partner.
Assay [3] is described as follows: alpha-synuclein stem-loop luciferase translation blockers – H4 neuroglioma cells, luminescence, confirmation (AID 1988). In kind it is functional, cell-based.
A short description of assay [4]: luciferase reporter signal suppression in cells – H4 neuroglioma cells, luminescence, dose response (AID 1990). In kind it is functional, cell-based.
The nature of assay [5]: Luminescence-based dose response cell-based high throughput screening assay for cytotoxic compounds using the IEC-6 intestinal epithelial cell line. [Related pubchem assays: 1858 (Summary AID.), 1825 (Counterscreen.), 1907 (Confirmation screen.)]. In kind it is functional.
Assay [6] is described as follows: Luminescence Cell-Based Dose Response HTS to Identify Inhibitors of 5'UTR Stem-Loop Driven Prion Protein mRNA Translation in H4 Neuroglioblastoma Cells. [Related pubchem assays: 1827 (Project Summary), 1813 (Primary HTS)]. Type of assay: functional.
The next assay concerns the target Cytochrome P450 2C19 (Homo sapiens, UniProt P33261). The experiment in a line: qHTS Assay for Inhibitors and Substrates of Cytochrome P450 2C19. [Related pubchem assays: 410 ]. In kind it is ADME. The following applies: read-out: Potency. (qHTS replaces the single test concentration by a dilution series.)
The nature of assay [7]: viability loss in THP-1 monocytes – THP-1 cells, cytotoxicity control for Vif-APOBEC3G degradation inhibitor project, dose response (AID 1117359). Type of assay: functional. The following applies: THP-1.
A short description of assay [8]: Late stage assay provider results from the probe development effort to identify selective inhibitors of heat shock protein 90 (HSP90): Absorbance-based cell proliferation assay in SKBR3 cells. Type of assay: functional. The following applies: SK-BR-3.
A short description of assay [9]: Late stage assay provider results from the probe development effort to identify selective inhibitors of heat shock protein 90 (HSP90): Absorbance-based cell proliferation assay in MCF7 cells. In kind it is functional.
Assay [10] concerns the target Heat shock protein HSP 90-alpha (Homo sapiens, UniProt P07900). Briefly: Luminescence-based dose response biochemical high throughput screening assay for inhibitors of the Heat Shock Protein 90 (HSP90). [Related pubchem assays: 1831 (Summary AID.), 1846 (Confirmation screen.), 1789 (Primary screen.)].
The target of a further assay is T2, Estrogen receptor (Homo sapiens, UniProt P03372).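 Also: potency for inhibiting coactivator peptide recruitment to the receptor.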
T2 sequence (P03372 whole entry): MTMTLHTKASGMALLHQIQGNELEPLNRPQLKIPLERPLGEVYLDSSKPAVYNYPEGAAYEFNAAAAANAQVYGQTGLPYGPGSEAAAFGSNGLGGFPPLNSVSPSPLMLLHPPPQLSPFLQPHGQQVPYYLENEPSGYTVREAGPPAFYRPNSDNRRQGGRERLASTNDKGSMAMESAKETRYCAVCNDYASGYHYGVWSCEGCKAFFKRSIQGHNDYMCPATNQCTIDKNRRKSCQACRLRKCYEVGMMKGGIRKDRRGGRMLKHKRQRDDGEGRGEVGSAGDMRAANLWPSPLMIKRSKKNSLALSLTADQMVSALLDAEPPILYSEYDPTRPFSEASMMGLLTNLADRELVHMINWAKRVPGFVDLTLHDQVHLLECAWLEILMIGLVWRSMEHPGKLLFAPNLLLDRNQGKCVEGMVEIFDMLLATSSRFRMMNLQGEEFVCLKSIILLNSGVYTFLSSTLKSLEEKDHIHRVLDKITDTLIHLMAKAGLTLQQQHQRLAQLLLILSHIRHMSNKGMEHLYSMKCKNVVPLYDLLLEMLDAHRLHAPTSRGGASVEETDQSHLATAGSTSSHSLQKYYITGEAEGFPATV

For the next assay, the target named is SUMO-activating enzyme (Homo sapiens, UniProt Q9UBT2). The experiment in a line: blockers of SAE1/SAE2–UBC9 SUMO transfer – biochemical, HTRF, uHTS, primary screen (AID 2006). Type of assay: protein-complex assay.
The target of assay [11] is Protein-tyrosine kinase 2-beta (Homo sapiens, UniProt Q14289).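 Also: potency of inhibitors of PYK2 kinase phosphorylation of poly-GT substrate.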
The target of another assay is Cytochrome P450 2D6 (Homo sapiens, UniProt P10635).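 Also: CYP2D6 member of a cytochrome P450 panel assay.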
The target of assay [12] is Glyceraldehyde-3-phosphate dehydrogenase (Homo sapiens, UniProt P04406).
Assay [13] has as its target T1, Bcl-2-related protein A1. Briefly: Bfl-1 binding inhibitors, SAR follow-up, biochemical, fluorescence polarization (AID 1070).
Assay [14] deals with Melanin-concentrating hormone receptor 1 (Homo sapiens, UniProt Q99705). Briefly: Fluorescence-based counterscreen for antagonists of the G-protein coupled receptor 7 (GPR7): cell-based high throughput dose response assay to identify antagonists of the melanin-concentrating hormone receptor 1 (MCHR1). In kind it is functional.
The target of assay [15] is T3, Neuropeptides B/W receptor type 1 (Homo sapiens, UniProt P48145).
T3 sequence (P48145 whole entry): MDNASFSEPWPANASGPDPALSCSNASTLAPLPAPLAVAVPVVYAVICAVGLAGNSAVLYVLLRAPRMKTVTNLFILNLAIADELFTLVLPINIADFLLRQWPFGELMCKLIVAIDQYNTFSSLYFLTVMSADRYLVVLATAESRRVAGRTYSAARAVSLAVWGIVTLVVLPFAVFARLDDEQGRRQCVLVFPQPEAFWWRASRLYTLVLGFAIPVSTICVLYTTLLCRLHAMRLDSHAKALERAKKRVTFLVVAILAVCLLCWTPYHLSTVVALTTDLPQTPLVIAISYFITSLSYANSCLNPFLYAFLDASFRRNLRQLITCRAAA
Briefly: Fluorescence-based dose response cell-based high throughput screening assay to identify antagonists of the G-protein coupled receptor 7 (GPR7). [Related pubchem assays: 1952 (Screening assay (GPR7 antagonists).), 1880 (Summary AID.)]. In kind it is functional.

Assay [16] is described as follows: viability of HCT116 lacking mutant beta-catenin – cell-based, human colon tumor, dose response (AID 1045).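 Also: HCT116 colon tumor cells with beta catenin knocked out; cells exposed to compound for 60 hours.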 Type of assay: functional.
A short description of assay [17]: viability of PTEN-deleted HCT116 cells – cell-based, HCT116 PTEN knockout, dose response (AID 1047).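 Also: HCT116 colon tumor cells with PTEN knocked out; cells exposed to compound for 60 hours before readout; potency for loss of cell viability measured by luminescence.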 Type of assay: functional.
The subject of the next assay is Vero. Briefly: mammalian cell viability reduction – secondary assay, cytotoxicity control for West Nile virus antiviral project, dose response (AID 1650). Type of assay: functional. As to conditions: Chlorocebus sabaeus.
Assay [18] deals with 5-hydroxytryptamine receptor 1A (Homo sapiens, UniProt P08908). Type of assay: functional.
Assay [19] addresses Neurotensin receptor type 1 (Homo sapiens, UniProt P30989). In kind it is functional.
For assay [20], the target named is COUP transcription factor 2 (Homo sapiens, UniProt P24468). The experiment in a line: Luminescence-based cell-based high throughput dose response assay to identify inhibitors of COUP-TFII (NR2F2). Type of assay: functional.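 Also: HEK293 cells transiently cotransfected with COUP-TFII expression vector and reporter; luciferase reporter luminescence driven by COUP-TFII from the pX2-168 reporter plasmid.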
Assay [21] is described as follows: Shn3 transcript knock-down in Clone20 cells – cell-based, qPCR, cherry-pick, dose response (AID 743415). Type of assay: functional.
The nature of assay [22]: reduction of Shn3 3'UTR-driven luciferase in osteoblasts – cell-based, Clone20 osteoblasts, firefly luciferase, cherry-picked, dose response (AID 624132).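 Also: firefly luciferase luminescence from reporter carrying the Shn3 3'UTR in osteoblasts.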 Type of assay: functional.
A short description of assay [23]: viability loss in CEM21 cells – cell-based, CellTiter-Glo luminescence, cherry-picked, cytotoxicity control for viral fusion inhibitor project, dose response (AID 652042).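 Also: potency for signal decrease meaning cytotoxicity.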 Type of assay: functional.
Assay [24] in a line: blockers of HIV-1 envelope-mediated cell-cell fusion – cherry-pick, dose response (AID 652057). Type of assay: functional, cell-based.
The target of the next assay is Protein Wnt-3a (Mus musculus, UniProt P27467). The experiment in a line: antagonism of Wnt3a pathway luciferase reporter – Wnt-LIGHT cells, luminescence, selectivity assay for Gli-SUFU antagonist project, dose response (AID 651570).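 Also: Wnt-LIGHT reporter cells stimulated with conditioned medium from Wnt3a-producing cells.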 Type of assay: functional. As to conditions: read-out: IC50_Mean.
A short description of assay [25]: loss of viability in HepG2 cells – cell-based, CellTiter-Glo, cherry-picked, cytotoxicity control for Shn3 inhibitor project, dose response (AID 624134). Type of assay: functional.
A short description of assay [26]: Shn3 3'UTR reporter signal decrease – cell-based, Clone20 osteoblasts, firefly luciferase, cherry-pick, set 2, Schnurri-3 inhibitor project, dose response (AID 720490).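 Also: actives lower the luminescence signal as inhibitors.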 Type of assay: functional.
Assay [27] is described as follows: HIV-1 AD8 envelope cell-cell fusion blockers – cherry-pick, dose response (AID 652062).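 Also: luciferase signal from cell-cell fusion driven by HIV-1 clade B AD8 Env; potency is for inhibitors of fusion seen as a drop in luminescence.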 Type of assay: functional, cell-based.
In assay [28] the target is Sphingosine 1-phosphate receptor 2 (Homo sapiens, UniProt O95136). Briefly: Dose Response Cell Based Assay for Antagonists of the S1P2 Receptor. [Related pubchem assays: 856, 736 ]. In kind it is functional.
A short description of assay [29]: non-specific 3'UTR reporter inhibition in Clone20-Shn3RL – cell-based, Renilla luciferase, cherry-picked, counter-screen for Shn3 inhibitor project, dose response (AID 624133). In kind it is functional.
Another assay concerns the target Genome polyprotein (Hepatitis C virus, UniProt Q2Q167). The experiment in a line: disruption of hepatitis C core self-association – biochemical, TR-FRET, dose response (AID 2159).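 Also: blocks dimerization of HCV core protein measured by TR-FRET between tagged core106 pairs.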 Also noted: species or system Hepacivirus hominis.

COUP transcription factor 2, sequence (P24468 whole entry): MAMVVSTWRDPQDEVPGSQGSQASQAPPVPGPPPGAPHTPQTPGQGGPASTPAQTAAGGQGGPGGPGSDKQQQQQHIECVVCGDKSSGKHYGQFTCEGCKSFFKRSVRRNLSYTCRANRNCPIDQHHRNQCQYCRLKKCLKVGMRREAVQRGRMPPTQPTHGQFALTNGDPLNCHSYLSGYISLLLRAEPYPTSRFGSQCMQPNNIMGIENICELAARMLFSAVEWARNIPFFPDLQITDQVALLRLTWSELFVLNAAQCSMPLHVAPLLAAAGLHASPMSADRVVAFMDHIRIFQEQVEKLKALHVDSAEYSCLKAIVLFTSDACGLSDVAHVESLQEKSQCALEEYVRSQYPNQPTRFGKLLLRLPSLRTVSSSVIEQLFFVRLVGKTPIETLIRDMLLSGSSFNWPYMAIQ
Genome polyprotein, sequence (Q2Q167 whole entry): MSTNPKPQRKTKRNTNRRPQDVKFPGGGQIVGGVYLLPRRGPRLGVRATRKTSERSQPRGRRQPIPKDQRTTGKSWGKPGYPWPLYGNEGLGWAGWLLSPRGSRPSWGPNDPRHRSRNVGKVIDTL
Protein-tyrosine kinase 2-beta, sequence (Q14289 whole entry): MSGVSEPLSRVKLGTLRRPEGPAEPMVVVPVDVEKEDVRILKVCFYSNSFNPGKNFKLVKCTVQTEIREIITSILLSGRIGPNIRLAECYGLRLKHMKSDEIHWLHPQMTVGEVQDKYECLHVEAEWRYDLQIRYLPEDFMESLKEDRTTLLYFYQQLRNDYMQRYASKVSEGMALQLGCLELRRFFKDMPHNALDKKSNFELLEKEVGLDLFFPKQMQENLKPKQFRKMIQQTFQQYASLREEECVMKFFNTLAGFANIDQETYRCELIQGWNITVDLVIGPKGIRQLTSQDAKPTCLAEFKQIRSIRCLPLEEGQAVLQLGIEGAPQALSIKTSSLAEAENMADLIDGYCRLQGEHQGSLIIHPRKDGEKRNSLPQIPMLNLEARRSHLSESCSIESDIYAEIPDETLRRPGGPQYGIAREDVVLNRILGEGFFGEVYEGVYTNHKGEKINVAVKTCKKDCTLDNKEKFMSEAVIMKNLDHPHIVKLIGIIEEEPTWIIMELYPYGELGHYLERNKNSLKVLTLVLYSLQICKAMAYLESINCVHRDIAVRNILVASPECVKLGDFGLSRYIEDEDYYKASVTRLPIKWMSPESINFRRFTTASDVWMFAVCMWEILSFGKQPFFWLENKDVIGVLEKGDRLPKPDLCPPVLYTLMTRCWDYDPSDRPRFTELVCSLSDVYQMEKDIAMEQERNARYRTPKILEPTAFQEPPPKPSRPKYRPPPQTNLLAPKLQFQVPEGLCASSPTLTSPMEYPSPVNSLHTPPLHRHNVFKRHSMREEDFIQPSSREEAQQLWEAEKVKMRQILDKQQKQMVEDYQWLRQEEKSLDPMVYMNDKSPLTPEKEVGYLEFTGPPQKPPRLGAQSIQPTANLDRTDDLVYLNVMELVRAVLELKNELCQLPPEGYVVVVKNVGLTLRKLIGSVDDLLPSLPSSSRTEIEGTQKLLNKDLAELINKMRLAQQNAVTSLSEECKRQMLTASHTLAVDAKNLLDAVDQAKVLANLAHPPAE
Protein Wnt-3a, sequence (P27467 whole entry): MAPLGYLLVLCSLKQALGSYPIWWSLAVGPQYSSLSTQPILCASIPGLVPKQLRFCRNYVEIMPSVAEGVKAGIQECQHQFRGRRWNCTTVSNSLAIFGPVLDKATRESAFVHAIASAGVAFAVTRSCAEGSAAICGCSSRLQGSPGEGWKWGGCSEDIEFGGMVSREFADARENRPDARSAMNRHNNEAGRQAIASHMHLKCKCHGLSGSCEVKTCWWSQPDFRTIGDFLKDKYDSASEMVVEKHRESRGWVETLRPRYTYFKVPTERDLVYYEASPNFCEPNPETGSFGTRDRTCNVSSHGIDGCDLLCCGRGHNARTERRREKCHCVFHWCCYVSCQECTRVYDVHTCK
Sphingosine 1-phosphate receptor 2, sequence (O95136 whole entry): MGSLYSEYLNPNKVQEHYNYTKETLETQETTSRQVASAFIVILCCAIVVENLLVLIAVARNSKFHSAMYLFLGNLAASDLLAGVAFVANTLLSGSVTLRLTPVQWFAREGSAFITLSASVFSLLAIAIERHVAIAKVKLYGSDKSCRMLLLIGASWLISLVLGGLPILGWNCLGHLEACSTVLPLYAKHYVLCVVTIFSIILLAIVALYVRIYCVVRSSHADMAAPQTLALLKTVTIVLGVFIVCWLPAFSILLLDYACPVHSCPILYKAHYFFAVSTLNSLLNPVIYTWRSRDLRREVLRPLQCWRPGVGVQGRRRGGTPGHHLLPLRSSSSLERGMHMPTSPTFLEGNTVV
5-hydroxytryptamine receptor 1A, sequence (P08908 whole entry): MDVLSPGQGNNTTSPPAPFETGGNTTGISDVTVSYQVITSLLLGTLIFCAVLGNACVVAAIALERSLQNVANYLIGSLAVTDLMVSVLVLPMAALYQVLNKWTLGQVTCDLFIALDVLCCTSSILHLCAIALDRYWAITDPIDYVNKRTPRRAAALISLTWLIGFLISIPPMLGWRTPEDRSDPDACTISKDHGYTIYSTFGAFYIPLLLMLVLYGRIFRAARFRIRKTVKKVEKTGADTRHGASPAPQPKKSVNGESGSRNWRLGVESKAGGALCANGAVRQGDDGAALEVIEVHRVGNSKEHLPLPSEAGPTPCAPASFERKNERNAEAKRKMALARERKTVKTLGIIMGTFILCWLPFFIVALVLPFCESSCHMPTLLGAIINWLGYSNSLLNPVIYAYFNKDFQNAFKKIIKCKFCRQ
Cytochrome P450 2D6, sequence (P10635 whole entry): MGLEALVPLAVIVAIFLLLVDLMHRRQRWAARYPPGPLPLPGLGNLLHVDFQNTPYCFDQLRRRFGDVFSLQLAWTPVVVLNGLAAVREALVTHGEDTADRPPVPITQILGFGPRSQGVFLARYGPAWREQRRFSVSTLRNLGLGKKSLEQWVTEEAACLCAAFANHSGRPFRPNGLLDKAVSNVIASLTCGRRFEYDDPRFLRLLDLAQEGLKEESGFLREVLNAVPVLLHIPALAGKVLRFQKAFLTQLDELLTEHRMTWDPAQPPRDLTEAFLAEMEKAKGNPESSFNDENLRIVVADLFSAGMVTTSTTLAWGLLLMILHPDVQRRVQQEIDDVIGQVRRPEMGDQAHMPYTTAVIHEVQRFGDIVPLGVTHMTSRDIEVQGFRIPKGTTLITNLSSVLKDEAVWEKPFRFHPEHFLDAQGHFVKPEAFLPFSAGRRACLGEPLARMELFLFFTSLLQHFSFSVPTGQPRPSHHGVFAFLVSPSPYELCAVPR
SUMO-activating enzyme, sequence (Q9UBE0 whole entry): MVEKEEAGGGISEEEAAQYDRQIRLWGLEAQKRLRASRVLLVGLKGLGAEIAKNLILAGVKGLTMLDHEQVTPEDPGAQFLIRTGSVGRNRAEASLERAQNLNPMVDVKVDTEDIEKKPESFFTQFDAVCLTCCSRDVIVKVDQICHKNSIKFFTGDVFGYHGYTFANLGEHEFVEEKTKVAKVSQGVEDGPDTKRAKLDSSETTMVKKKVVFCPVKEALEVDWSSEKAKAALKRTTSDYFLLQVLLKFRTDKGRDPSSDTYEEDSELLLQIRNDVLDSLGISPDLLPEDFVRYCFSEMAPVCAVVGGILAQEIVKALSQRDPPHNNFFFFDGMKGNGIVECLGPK
SUMO-activating enzyme, sequence (Q9UBT2 whole entry): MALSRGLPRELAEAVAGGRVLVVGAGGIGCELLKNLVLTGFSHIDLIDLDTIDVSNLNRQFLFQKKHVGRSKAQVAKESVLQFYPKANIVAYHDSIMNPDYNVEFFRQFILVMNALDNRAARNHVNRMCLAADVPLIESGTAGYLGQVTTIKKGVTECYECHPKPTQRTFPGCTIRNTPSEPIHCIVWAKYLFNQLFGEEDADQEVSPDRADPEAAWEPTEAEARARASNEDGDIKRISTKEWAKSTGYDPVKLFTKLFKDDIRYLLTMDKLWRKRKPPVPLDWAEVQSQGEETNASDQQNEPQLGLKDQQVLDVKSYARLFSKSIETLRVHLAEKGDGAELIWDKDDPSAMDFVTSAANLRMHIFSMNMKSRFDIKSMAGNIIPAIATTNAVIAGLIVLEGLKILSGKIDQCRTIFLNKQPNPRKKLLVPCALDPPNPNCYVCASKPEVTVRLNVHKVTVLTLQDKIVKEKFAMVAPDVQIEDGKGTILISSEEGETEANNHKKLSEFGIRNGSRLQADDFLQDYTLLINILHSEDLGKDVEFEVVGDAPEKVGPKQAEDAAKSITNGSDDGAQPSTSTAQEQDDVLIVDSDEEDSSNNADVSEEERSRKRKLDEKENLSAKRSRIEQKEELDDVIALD
Neurotensin receptor type 1, sequence (P30989 whole entry): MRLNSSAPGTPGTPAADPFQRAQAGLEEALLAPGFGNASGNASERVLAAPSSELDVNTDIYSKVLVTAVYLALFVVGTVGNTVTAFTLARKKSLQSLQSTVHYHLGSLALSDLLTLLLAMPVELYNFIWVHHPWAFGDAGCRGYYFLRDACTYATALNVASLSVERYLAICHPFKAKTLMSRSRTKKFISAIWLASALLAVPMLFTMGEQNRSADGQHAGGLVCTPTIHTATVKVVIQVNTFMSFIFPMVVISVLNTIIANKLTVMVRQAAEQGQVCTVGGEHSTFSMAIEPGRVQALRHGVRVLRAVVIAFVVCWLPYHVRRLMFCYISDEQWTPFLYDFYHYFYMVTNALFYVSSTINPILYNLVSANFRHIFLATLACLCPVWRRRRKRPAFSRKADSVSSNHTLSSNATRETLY
Glyceraldehyde-3-phosphate dehydrogenase, sequence (P04406 whole entry): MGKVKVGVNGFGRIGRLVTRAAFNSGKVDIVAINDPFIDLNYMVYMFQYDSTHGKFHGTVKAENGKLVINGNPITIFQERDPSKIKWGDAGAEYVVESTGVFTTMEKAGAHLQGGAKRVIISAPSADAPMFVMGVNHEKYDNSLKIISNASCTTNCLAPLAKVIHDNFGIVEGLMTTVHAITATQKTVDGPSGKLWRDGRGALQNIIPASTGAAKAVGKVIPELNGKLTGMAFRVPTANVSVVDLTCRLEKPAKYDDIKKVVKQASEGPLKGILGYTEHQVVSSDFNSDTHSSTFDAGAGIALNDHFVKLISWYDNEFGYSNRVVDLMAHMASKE

Consider `O=C(NC12CC3CC(CC(C3)C1)C2)c1ccccc1O`, for which the IC50 against Bcl-2-related protein A1 [1] and at Bcl-2-related protein A1 [2] was > 100 µM (not active) in each case.

As for `CC(C)NCC(O)Cn1c2c(c3ccccc31)CCc1c-2cnn1-c1ccccc1` (configuration not stated), the EC50 is 6.18 µM (active) in assay [3], 8.19 µM (active) in [4] and 10.7 µM (active) in assay [6]. The IC50 in [5] was 3.51 µM (active).

For `OCC1OC(c2ccccc2)C=CC1Oc1cc(Cl)cc(Cl)c1` (configuration not stated), the AC50 at Cytochrome P450 2C19 is 1.26 µM (inconclusive).

For the molecule `CCOc1ccc(-c2nc(CN3CCCCC3CCn3cccn3)c(C)o2)cc1` (configuration not stated), the CC50 in assay [7] is > 40 µM (active). Besides, the IC50 in assay [8] is 12.3 µM (inactive); in assay [9] it was 22.2 µM (inactive); in assay [10], 9.63 µM (active).

As for `O=C(Nc1ccc(-n2nncc2-c2ccco2)cc1)c1cc2ccccc2oc1=O`, the IC50 against Estrogen receptor was 40.6 µM (not active); on SUMO-activating enzyme it was 14.7 µM (active); in assay [11], 1.9 µM (active). Further, the AC50 at Cytochrome P450 2D6 was 2.51 µM (inconclusive).

As to `CN1CCN(C2=C(Cl)C(=O)N(c3cccc(Cl)c3)C2=O)CC1`, the values for the IC50 (at Bcl-2-related protein A1 [1]; in assay [12]; on Bcl-2-related protein A1 [13]) were 1.17 µM (active), > 100 µM (not active) and 2.15 µM (active), respectively.

As for `COc1ccc(S(=O)(=O)N(CC(=O)Nc2ccc(S(=O)(=O)N3CCOCC3)cc2)Cc2ccc(F)cc2)cc1`, the IC50 in assay [14] and in [15] was > 43.8 µM (not active) each time.

`C=CCn1c(SCC(=O)c2[nH]c(C)c(C(=O)OCC)c2C)nc2scc(-c3ccccc3)c2c1=O`: the EC50 is 3.85 µM (active) in [16] and 5.36 µM (active) in [17]. The CC50 with Vero is > 100 µM (active).

For `O=C(NCc1ccccc1)NC1(C(=O)N2CCCC2)CCCCC1`, the EC50 in assay [18] was > 50 µM (not active).

For `Fc1ccc(-n2nnnc2-c2cnc(-c3cccs3)nc2C(F)(F)F)cc1`, in assay [19], the EC50 is 9.77 µM (active). The results for the IC50 (in [20]; on Protein Wnt-3a; in [28]) were 12.8 µM (inactive), 5.83 µM (active) and 5.2 µM (active), respectively. Besides, the AC50 is 24.4 µM (active) in assay [21]; 4.44 µM (active) in [22]; 18.8 µM (active) in [23]; 9.88 µM (active) in assay [24]; 55 µM (active) in assay [25]; 2.6 µM (active) in assay [26]. The AC50 in assay [27] is 40.4 µM (active); in [29], 13.3 µM (active).

As for `CCc1nnc(NCC(=O)N2CCc3ccccc32)s1`, at Genome polyprotein, the IC50 is > 49.8 µM (not active).
